Structures can show the parent of a compound that is named as a salt. Where two headings read alike, the source gives them in different places.
Molecular target: Na+, K+-ATPase (Canis lupus familiaris, UniProt P50997)
Experiment: biochemical
Set-up: species or system dog
[1] = dog kidney enzyme, read-out: Na+, K+-ATPase Inhibition IC50
[2] = read-out: Na+, K+-ATPase Inhibition IC50

## CNCCCON=C1CC[C@@]2(C)[C@H](C1)C[C@H](CO)[C@@H]1[C@@H]2CC[C@]2(C)C(=O)CC[C@@H]12 (mixture of isomers) [I-cw, (E,Z) 3-(3-N-Methylaminopropoxyimino)-7β-hydroxymethylandrostane-17-one hydrochloride]
[1]
  IC50: 2300 nM

## C[C@]12CCC(=NOCCN)C[C@@H]1[C@]1(CO1)C[C@@H]1[C@@H]2CC[C@]2(C)C(=O)CC[C@@H]12 (mixture of isomers) [I-bb, (E,Z)-3-(2-Aminoethoxyimino)androstane-6(S)-(spiro-2′-oxirane)-17-one hydrochloride]
[1]
  IC50: 870 nM

## C[C@]12CCC(=NOCCN)CC1C[C@@H](O)[C@@H]1[C@@H]2CC[C@]2(C)C(=O)CC[C@@H]12 (stereo partly drawn) [I-bv, (E,Z) 3-(2-Aminoethoxyimino)-7α-hydroxyandrostane-17-one fumarate]
[2]
  IC50: 520 nM

## C[C@]12CCC(=NOCCN)C[C@@H]1CC1(CC1)[C@@H]1[C@@H]2CC[C@]2(C)C(=O)CC[C@@H]12 (mixture of isomers) [I-cb, (E,Z) 3-(2-Aminoethoxyimino)-7-(spirocyclopropane)androstan-17-one hydrochloride]
[1]
  IC50: 130 nM

## CC12CCC3C(CC(C(=O)O)C4CC(=NOCCN)CCC43C)C1CCC2=O (mixture of isomers) [I-ar, (E,Z) 3-(2-Aminoethoxyimino)-6α-carboxyandrostan-17-one hydrochloride]
[1]
  IC50: 16000 nM

## CNCCCON=C1CC[C@]2(C)[C@H]3CC[C@]4(C)C(=O)CC[C@H]4[C@@H]3CC(=NOC)[C@@]2(O)C1 [I-cs, (E,Z) 3-(3-N-Methylaminopropoxyimino)-5α-hydroxy-6-(E)-methoxyimino-androstane-17-one fumarate]
[2]
  IC50: 1100 nM

## CC12CCC3C(CC(C#N)C4CC(=NOCCN)CCC43C)C1CCC2=O (mixture of isomers) [I-ac, (E,Z) 3-(2-Aminoethoxyimino)-6α-cyanoandrostan-17-one fumarate]
[1]
  IC50: 1100 nM

## CNCCON=C1CC[C@@]2(C)C(C1)C(=NOC)C[C@@H]1[C@@H]2CC[C@]2(C)C(=O)CC[C@@H]12 (some centres unmarked) [I-ce, (E,Z) 3-(2-N-Methylaminoethoxyimino)-6-(E)-methoxyiminoandrostan-17-one hydrochloride]
[2]
  IC50: 650 nM

## COCC1CC2CC(=NOCCN)CCC2(C)C2CCC3(C)C(=O)CCC3C12 (mixture of isomers) [I-ed, (E,Z) 3-(2-Aminoethoxyimino)-7α-methoxymethylandrostane-17-one hydrochloride]
[1]
  IC50: 38000 nM

## C=C1C[C@@H]2[C@H](CC[C@]3(C)C(=O)CC[C@@H]23)[C@@]2(C)CC[C@@H](SCCCNC)C[C@H]12 [I-ea, 3α-(3-N-Methylaminopropylthio)-6-methyleneandrostane-17-one fumarate]
[1]
  IC50: 2800 nM

## CC1CC2C3CCC(=O)C3(C)CCC2C2(C)CCC(=NOCCN)CC12 (single isomer, unassigned) [I-az, (E,Z) 3-(2-Aminoethoxyimino)-6β-methylandrostan-17-one hydrochloride]
Na+, K+-ATPase Inhibition IC50
  IC50: 6000 nM

## CC(=O)NC[C@H]1C[C@@H]2[C@H](CC[C@]3(C)C(=O)CC[C@@H]23)[C@@]2(C)CCC(=NOCCN)CC12 (stereo partly drawn) [I-bm, (E,Z) 3-(2-Aminoethoxyimino)-6α-acetamidomethylandrostan-17-one hydrochloride]
[2]
  IC50: 3600 nM

## C=C1C[C@@H]2[C@H](CC[C@]3(C)C(=O)CC[C@@H]23)[C@@]2(C)CC[C@@H](SCCCN)CC12 (stereo partly drawn) [I-dz, 3α-(3-Aminopropylthio)-6-methyleneandrostane-17-one fumarate]
[1]
  IC50: 1500 nM

## CC12CCC3C(CC(=CCO)C4CC(=NOCCN)CCC43C)C1CCC2=O (mixture of isomers) [I-bj, (E,Z) 3-(2-Aminoethoxyimino)-6-(E)-[2-hydroxyethylidene]androstan-17-one hydrochloride]
Na+, K+-ATPase Inhibition IC50
  IC50: 770 nM

## COC(=O)C=C1CC2C3CCC(=O)C3(C)CCC2C2(C)CCC(=NOCCN)CC12 (mixture of isomers) [I-bk, Methyl [3-(E,Z)-(2-aminoethoxyimino)-17-oxoandrostane-6-(E)-ylidene]-acetate hydrochloride]
[1]
  IC50: 64000 nM

## CNCCCON=C1CC[C@@]2(C)[C@H](C1)[C@@H](C(N)=O)C[C@@H]1[C@@H]2CC[C@]2(C)C(=O)CC[C@@H]12 (mixture of isomers) [I-cn, (Z,E) 3-(3-N-Methylaminopropoxyimino)-6α-carbamoylandrostan-17-one hydrochloride]
[1]
  IC50: 1900 nM

## CC(C)(CN)ON=C1CC[C@@]2(C)C(C1)/C(=N/O)C[C@@H]1[C@@H]2CC[C@]2(C)C(=O)CC[C@@H]12 (some centres unmarked) [I-eo, (E,Z) 3-(3-Amino-2-methyl-2-propoxyimino)-6-(E)-hydroxyiminoandrostane-17-one hydrochloride]
[2]
  IC50: 20 nM

## 3α-(3-Aminopropylthio)-6-(E)-hydroxyiminoandrostane-17-one hemifumarate [I-dw]
[2]
  IC50: 850 nM

## CC(=O)OCC1CC2C3CCC(=O)C3(C)CCC2C2(C)CCC(=NOCCN)CC12 (stereo not drawn) [I-ap, (E,Z) 3-(2-Aminoethoxyimino)-6α-acetoxymethylandrostan-17-one fumarate]
[1]
  IC50: 3000 nM

## C#CC1CC2C3CCC(=O)C3(C)CCC2C2(C)CCC(=NOCCCNC)CC12 (stereo not drawn) [I-cq, (E,Z) 3-(3-N-Methylaminopropoxyimino)-6α-ethynylandrostan-17-one hydrochloride]
Na+, K+-ATPase Inhibition IC50
  IC50: 1200 nM

## CC12CCC3C(C(=O)C(CO)C4CC(=NOCCN)CCC43C)C1CCC2=O (mixture of isomers) [I-cd, (E,Z) 3-(2-Aminoethoxyimino)-6α-hydroxymethylandrostane-7,17-dione hydrochloride]
[1]
  IC50: 12 nM

## C[C@]12CCC(=NOCCN)CC1C[C@@H](NC=O)[C@@H]1[C@@H]2CC[C@]2(C)C(=O)CC[C@@H]12 (stereo partly drawn) [I-bw, (E,Z)-3-(2-Aminoethoxyimino)-7α-formamidoandrostane-3,17-dione hydrochloride]
[2]
  IC50: 6000 nM

## COC[C@H]1C[C@@H]2[C@H](CC[C@]3(C)C(=O)CC[C@@H]23)[C@@]2(C)CC/C(=N\OCCN)CC12 (stereo partly drawn) [I-aq, (E) 3-(2-Aminoethoxyimino)-6α-methoxymethylandrostan-17-one hydrochloride]
[1]
  IC50: 500 nM

## C=C1C[C@@H]2[C@H](CC[C@]3(C)C(=O)CC[C@@H]23)[C@@]2(C)CC[C@@H]([S@+]([O-])CCCN)CC12 (stereo partly drawn) [I-ec, 3α-[(R)-3-Aminopropylsulfinyl]-6-methyleneandrostane-17-one fumarate]
[2]
  IC50: 80000 nM

## CC12CCC3C(CC4(OCCO4)C4CC(=NOCCN)CCC34C)C1CCC2=O (mixture of isomers) [I-ag, (E,Z) 3-(2-Aminoethoxyimino)-6-(2-spiro-1,3-dioxolane)androstane-17-one fumarate]
[1]
  IC50: 5400 nM

## C=C1C[C@H]2[C@@H]3CCC(=O)[C@@]3(C)CC[C@@H]2[C@@]2(C)CCC(=NOCCCNC)C[C@]12O (mixture of isomers) [I-ct, (E,Z) 3-(3-N-Methylaminopropoxyimino)-5α-hydroxy-6-methylenandrostan-17-one hydrochloride]
Na+, K+-ATPase Inhibition IC50
  IC50: 1400 nM

## C=C1C[C@@H]2[C@H](CC[C@]3(C)C(=O)CC[C@@H]23)[C@@]2(C)CC/C(=N\OCCCNC)C[C@H]12 [I-cj, (E) 3-(3-N-Methylaminopropoxyimino)-6-methyleneandrostan-17-one fumarate]
Na+, K+-ATPase Inhibition IC50
  IC50: 380 nM

## C[C@]12CC/C(=N/OCCN)CC1[C@@H](C(N)=O)C[C@@H]1[C@@H]2CC[C@]2(C)C(=O)CC[C@@H]12 (stereo partly drawn) [I-as, (Z) 3-(2-Aminoethoxyimino)-6α-carbamoylandrostan-17-one hydrochloride]
[2]
  IC50: 630 nM

## C=CC1CC2C3CCC(=O)C3(C)CCC2C2(C)CCC(=NOCCN)CC12 (stereo not drawn) [I-al, (E,Z) 3-(2-Aminoethoxyimino)-6α-vinylandrostan-17-one hydrochloride]
Na+, K+-ATPase Inhibition IC50
  IC50: 530 nM

## C[C@]12CCC(=NOCCN)CC1C[C@H](CO)[C@@H]1[C@@H]2CC[C@]2(C)C(=O)CC[C@@H]12 (stereo partly drawn) [I-ca, (E,Z) 3-(2-Aminoethoxyimino)-7β-hydroxymethylandrostane-17-one hydrochloride]
[2]
  IC50: 910 nM

## C[C@]12CCC(=NOCCN)CC1C1(CO1)C[C@@H]1[C@@H]2CC[C@]2(C)C(=O)CC[C@@H]12 (stereo partly drawn) [I-bc, (E,Z)-3-(2-Aminoethoxyimino)androstane-6(R)-(spiro-2′-oxirane)-17-one hydrochloride]
[2]
  IC50: 910 nM

## C=C1C[C@H]2[C@@H]3CCC(=O)[C@@]3(C)CC[C@@H]2[C@@]2(C)CCC(=NOCCNC)C[C@]12O (mixture of isomers) [I-cg, (E,Z) 3-(2-N-Methylaminoethoxyimino)-5α-hydroxy-6-methylenandrostan-17-one hydrochloride]
Na+, K+-ATPase Inhibition IC50
  IC50: 2600 nM

## CNCCCON=C1CCC2(C)C(C1)C(CO)C(O)C1C3CCC(=O)C3(C)CCC12 (mixture of isomers) [I-ek, (E,Z) 3-(3-N-Methylaminopropoxyimino)-6α-hydroxymethyl-7α-hydroxyandrostane-17-one hydrochloride]
[1]
  IC50: 320 nM

## CC12CCC3C(CC(CO)C4CC(=NOCCN)CCC43C)C1CCC2=O (single isomer, unassigned) [I-aj, (E,Z) 3-(2-Aminoethoxyimino)-6β-hydroxymethylandrostan-17-one hydrochloride]
[1]
  IC50: 1600 nM

## CC12CCC3C(CC(CNC=O)C4CC(=NOCCN)CCC43C)C1CCC2=O (mixture of isomers) [I-bn, (E,Z) 3-(2-Aminoethoxyimino)-6α-formamidomethylandrostane-17-one hydrochloride]
[1]
  IC50: 5100 nM

## C[C@H]1C[C@H]2CC(=NOCCN)CC[C@]2(C)[C@H]2CC[C@]3(C)C(=O)CC[C@H]3[C@H]12 (mixture of isomers) [I-by, (E,Z) 3-(2-Aminoethoxyimino)-7β-methylandrostane-17-dione hydrochloride]
Na+, K+-ATPase Inhibition IC50
  IC50: 640 nM

## CC12CCC3C(CC(O[N+](=O)[O-])C4CC(=NOCCN)CCC43C)C1CCC2=O (single isomer, unassigned) [I-aa, (E,Z) 3-(2-Aminoethoxyimino)-17-oxoandrostane-6α-yl nitrate fumarate]
[1]
  IC50: 330 nM

## C[C@]12CCC(=NOCCN)C[C@@H]1C(=C(F)F)C[C@@H]1[C@@H]2CC[C@]2(C)C(=O)CC[C@@H]12 (mixture of isomers) [I-bh, (E,Z) 3-(2-Aminoethoxyimino)-6-difluoromethyleneandrostan-17-one hydrochloride]
Na+, K+-ATPase Inhibition IC50
  IC50: 190 nM
